Results reported in the CheMixHub viscosity set.
± gives the uncertainty stated by the source.

Assay: xn = mol fraction of the nth substance listed

CCCCCCCCCCCC[P+](CC)(CC)CC.N#Cc1ccc[n-]1 + OCCN(CCO)CCO
viscosity [mPa·s], 100 kPa
Settings	x1 = 0.035	x1 = 0.091	x1 = 0.207	x1 = 0.28	x1 = 0.473	x1 = 0.687	x1 = 0.809
293.15 K	991 ± 150	–	876 ± 130	863 ± 130	853 ± 130	836 ± 120	718 ± 110
298.15 K	–	675 ± 100	–	–	–	–	–

CCn1cc[n+](C)c1.F[B-](F)(F)F + OCCO
Settings	viscosity [mPa·s]
313.15 K, 101 kPa, x1 = 0.7003	10.55 ± 1.1
323.15 K, 100 kPa, x1 = 0.717	9.915 ± 1
323.15 K, 101 kPa, x1 = 0.7997	9.913 ± 0.99

Cc1ccc(N)cc1 + Oc1ccccc1
101 kPa
Settings	viscosity [mPa·s]
303.1 K, x2 = 0.43	7.57 ± 0.16
303.1 K, x2 = 0.507	8.64 ± 0.18
303.1 K, x2 = 0.619	9.42 ± 0.19
303.1 K, x2 = 0.652	9.62 ± 0.19
303.1 K, x2 = 0.741	8.94 ± 0.18
313.05 K, x2 = 0.111	2.632 ± 0.025
313.05 K, x2 = 0.2288	3.352 ± 0.033
313.05 K, x2 = 0.3265	4.09 ± 0.04
313.05 K, x2 = 0.4169	4.82 ± 0.05
313.05 K, x2 = 0.4949	5.43 ± 0.05
313.05 K, x2 = 0.5828	6.015 ± 0.058
313.05 K, x2 = 0.6568	6.29 ± 0.06
313.05 K, x2 = 0.737	6.27 ± 0.06
313.05 K, x2 = 0.8217	5.915 ± 0.057
313.05 K, x2 = 0.9089	5.38 ± 0.05

c1ccc(Oc2ccccc2)cc1 + c1ccc(-c2ccccc2)cc1
Settings	viscosity [mPa·s]
293.15 K, 101 kPa, x1 = 0.705	4.35 ± 0.18
298.15 K, 101 kPa, x1 = 0.705	3.78 ± 0.16
298.15 K, 101 kPa, x1 = 0.85	3.71 ± 0.15
298.95 K, 101.33 kPa, x1 = 0.715	3.66 ± 0.12
303.15 K, 101 kPa, x1 = 0.85	3.32 ± 0.14
308.15 K, 101 kPa, x1 = 0.705	2.94 ± 0.12
308.15 K, 101 kPa, x1 = 0.85	2.93 ± 0.12
309.85 K, 101.33 kPa, x1 = 0.715	2.84 ± 0.09
313.15 K, 101 kPa, x1 = 0.55	2.63 ± 0.11
313.15 K, 101 kPa, x1 = 0.705	2.61 ± 0.11
313.15 K, 101 kPa, x1 = 0.85	2.61 ± 0.11
314.15 K, 101.33 kPa, x1 = 0.715	2.57 ± 0.08
318.65 K, 101.33 kPa, x1 = 0.715	2.4 ± 0.08
321.95 K, 101.33 kPa, x1 = 0.715	2.29 ± 0.07

CC(C)CCC[C@@H](C)[C@H]1CC[C@H]2[C@@H]3CC=C4C[C@@H](O)CC[C@]4(C)[C@H]3CC[C@]12C + c1ccccc1
viscosity [mPa·s], 101.33 kPa
Settings	x1 = 0.00346	x1 = 0.00447	x1 = 0.00753	x1 = 0.008796	x1 = 0.01276	x1 = 0.01496	x1 = 0.01612	x1 = 0.01894	x1 = 0.02302
298 K	0.617 ± 0.008	0.624 ± 0.008	0.643 ± 0.008	0.651 ± 0.008	0.681 ± 0.009	0.698 ± 0.009	0.708 ± 0.009	0.733 ± 0.009	0.773 ± 0.009
303 K	0.574 ± 0.007	0.579 ± 0.007	0.598 ± 0.008	0.607 ± 0.008	0.633 ± 0.008	0.647 ± 0.008	0.657 ± 0.008	0.677 ± 0.008	0.714 ± 0.009
313 K	0.506 ± 0.007	0.509 ± 0.007	0.525 ± 0.007	0.529 ± 0.007	0.552 ± 0.007	0.565 ± 0.007	0.571 ± 0.007	0.588 ± 0.008	0.614 ± 0.008
323 K	0.448 ± 0.006	0.453 ± 0.006	0.466 ± 0.006	0.472 ± 0.006	0.489 ± 0.007	0.499 ± 0.007	0.504 ± 0.007	0.517 ± 0.007	0.541 ± 0.007

CCCCCCCCCCCC + c1ccccc1
Settings	viscosity [mPa·s]
295.15 K, 100 kPa, x2 = 0.3903	1.047 ± 0.21
298 K, 101 kPa, x2 = 0.5	0.9053 ± 0.024
298.15 K, 101.33 kPa, x1 = 0.04733	0.6259 ± 0.0056
298.15 K, 101.33 kPa, x1 = 0.1084	0.6476 ± 0.0057
298.15 K, 101.33 kPa, x1 = 0.2036	0.6913 ± 0.0061
298.15 K, 101.33 kPa, x1 = 0.2978	0.7491 ± 0.0065
298.15 K, 101.33 kPa, x1 = 0.4139	0.8308 ± 0.0071
298.15 K, 101.33 kPa, x1 = 0.5192	0.9153 ± 0.0077
298.15 K, 101.33 kPa, x1 = 0.6155	0.9976 ± 0.0083
298.15 K, 101.33 kPa, x1 = 0.7291	1.102 ± 0.0091
298.15 K, 101.33 kPa, x1 = 0.8011	1.168 ± 0.0096
298.15 K, 101.33 kPa, x1 = 0.9231	1.291 ± 0.01
298.38 K, 101.3 kPa, x1 = 0.5002	0.8885 ± 0.011
298.52 K, 101.3 kPa, x1 = 0.2502	0.7103 ± 0.0087
298.76 K, 101.3 kPa, x1 = 0.7496	1.097 ± 0.013
298.77 K, 101.3 kPa, x1 = 0.7496	1.096 ± 0.013
298.79 K, 101.3 kPa, x1 = 0.7496	1.095 ± 0.013
299.49 K, 101.3 kPa, x1 = 0.5002	0.8746 ± 0.011
308.08 K, 101.3 kPa, x1 = 0.5002	0.775 ± 0.0094
308.51 K, 101.3 kPa, x1 = 0.2502	0.6242 ± 0.0076
308.9 K, 101.3 kPa, x1 = 0.7496	0.9482 ± 0.011
318 K, 101 kPa, x2 = 0.5	0.6904 ± 0.018
322.92 K, 101.3 kPa, x1 = 0.5002	0.6451 ± 0.0078
322.94 K, 101.3 kPa, x1 = 0.2502	0.5262 ± 0.0064

CCCCCCCCCCO + c1ccccc1
viscosity [mPa·s], 100 kPa
Settings	x2 = 0.0822	x2 = 0.1563	x2 = 0.2472	x2 = 0.3611	x2 = 0.4531	x2 = 0.5602	x2 = 0.6533	x2 = 0.7528	x2 = 0.8574	x2 = 0.9496
293.15 K	12.2 ± 0.61	10.48 ± 0.53	8.738 ± 0.44	6.833 ± 0.34	5.51 ± 0.28	4.154 ± 0.21	3.087 ± 0.16	2.082 ± 0.11	1.318 ± 0.068	0.839 ± 0.044
303.15 K	8.134 ± 0.41	6.872 ± 0.35	5.555 ± 0.28	4.197 ± 0.21	3.332 ± 0.17	2.5 ± 0.1	1.888 ± 0.096	1.361 ± 0.069	0.925 ± 0.047	0.656 ± 0.034
313.15 K	5.704 ± 0.29	4.746 ± 0.24	3.723 ± 0.19	2.709 ± 0.14	2.089 ± 0.11	1.514 ± 0.077	1.132 ± 0.058	0.877 ± 0.045	0.673 ± 0.034	0.546 ± 0.028
323.15 K	4.088 ± 0.21	3.345 ± 0.17	2.548 ± 0.13	1.757 ± 0.089	1.34 ± 0.07	1.012 ± 0.051	0.796 ± 0.041	0.644 ± 0.033	0.536 ± 0.027	0.461 ± 0.024

Cc1ccccc1C + c1ccccc1
viscosity [mPa·s]
Settings	293.15 K	303.15 K	308.15 K	313.15 K	318.15 K	323.15 K
101 kPa, x2 = 0.1	–	0.657 ± 0.004	0.622 ± 0.004	0.594 ± 0.004	0.572 ± 0.004	–
101 kPa, x2 = 0.2	–	0.665 ± 0.004	0.631 ± 0.004	0.597 ± 0.004	0.573 ± 0.004	–
101 kPa, x2 = 0.4	–	0.69 ± 0.005	0.668 ± 0.005	0.599 ± 0.004	0.574 ± 0.004	–
101 kPa, x2 = 0.6	–	0.652 ± 0.004	0.623 ± 0.004	0.592 ± 0.004	0.55 ± 0.004	–
101 kPa, x2 = 0.802	–	0.645 ± 0.004	0.61 ± 0.004	0.577 ± 0.004	0.552 ± 0.004	–
101 kPa, x2 = 0.902	–	0.67 ± 0.004	0.641 ± 0.004	0.623 ± 0.004	0.587 ± 0.004	–
101.33 kPa, x2 = 0.1	–	0.657 ± 0.07	0.622 ± 0.066	0.594 ± 0.064	0.572 ± 0.062	–
101.33 kPa, x2 = 0.2	–	0.665 ± 0.07	0.631 ± 0.067	0.597 ± 0.064	0.573 ± 0.062	–
101.33 kPa, x2 = 0.2114	0.749 ± 0.0065	0.657 ± 0.0058	–	0.583 ± 0.0053	–	0.519 ± 0.0048
101.33 kPa, x2 = 0.4	–	0.69 ± 0.072	0.668 ± 0.07	0.599 ± 0.064	0.574 ± 0.062	–
101.33 kPa, x2 = 0.4129	0.71 ± 0.0062	0.625 ± 0.0056	–	0.554 ± 0.005	–	0.493 ± 0.0046
101.33 kPa, x2 = 0.5938	0.685 ± 0.0061	0.601 ± 0.0054	–	0.531 ± 0.0049	–	0.474 ± 0.0044
101.33 kPa, x2 = 0.6	–	0.652 ± 0.069	0.623 ± 0.067	0.592 ± 0.064	0.55 ± 0.06	–
101.33 kPa, x2 = 0.7195	0.669 ± 0.0059	0.585 ± 0.0053	–	0.517 ± 0.0048	–	0.461 ± 0.0043
101.33 kPa, x2 = 0.802	–	0.645 ± 0.068	0.61 ± 0.065	0.577 ± 0.063	0.552 ± 0.06	–
101.33 kPa, x2 = 0.8514	0.658 ± 0.0059	0.575 ± 0.0052	–	0.506 ± 0.0047	–	0.45 ± 0.0043
101.33 kPa, x2 = 0.902	–	0.67 ± 0.071	0.641 ± 0.068	0.623 ± 0.067	0.587 ± 0.063	–

c1cc[nH]c1 + c1ccccc1
viscosity [mPa·s], 101 kPa
Settings	x1 = 0.05439	x1 = 0.06772	x1 = 0.1099
303.15 K	0.576 ± 0.018	0.579 ± 0.018	0.59 ± 0.018
323.15 K	0.445 ± 0.016	0.452 ± 0.016	0.459 ± 0.016

NC(N)=O + c1ccncc1
Settings	viscosity [mPa·s]
298.15 K, 101 kPa, x1 = 0.012	0.939 ± 0.19
